In one series the target is T1, RORγt (Homo sapiens, UniProt P51449).
T1 sequence (P51449 263-518 limits assumed): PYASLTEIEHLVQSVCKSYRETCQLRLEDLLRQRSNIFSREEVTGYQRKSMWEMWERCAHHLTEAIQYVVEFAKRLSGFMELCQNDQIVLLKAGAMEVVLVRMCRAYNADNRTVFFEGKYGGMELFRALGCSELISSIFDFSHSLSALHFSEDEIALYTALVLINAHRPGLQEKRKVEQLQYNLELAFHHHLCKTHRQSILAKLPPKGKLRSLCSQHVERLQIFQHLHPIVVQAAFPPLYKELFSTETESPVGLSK
T1 sequence (Q15788 676-700 partner limits assumed): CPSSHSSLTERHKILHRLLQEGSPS
Nature of the series: RORγt dual FRET assay. The series is classed as biochemical. The protocol: The assay was performed according to a previous study. The plates were incubated for 1 h at room temperature and then read on Envision in LANCE mode configured for the europeum-APC labels.

In series [1] the test system is mutated RORγt protein at key binding sites. Nature of the series: Biacore binding to mutated RORγt LBD protein. The arrangement: species or system human. The source says: Human nuclear receptor RORγt (residues 263–509)-GGG-SRC1 (SRC1 sequence: EKHKILHRLLQDS, Sangon Biotech, Shanghai). RORγt LBD was cloned in pET28a. Key residue mutations of RORγt LBD (such as PHE388, LEU391, CYS393, LEU396, ILE397, ILE400, CYS320, ALA321, LEU324, MET358, and PHE388) with LYC-55716 were cloned in pET28a. Key residue mutations of RORγt LBD (MET365, ALA368, PHE401, ILE400, ILE397, LEU396, TRP317, CYS320, LEU324, ALA327, TYR330, VAL331, MET358, and VAL361) with 8-074 were cloned in pET28a. The proteins were expressed in E. coli strain DE3. Then, the transformed E. coli culture was grown at 37 °C with 30 μg/mL Kanamycin LB (Luria–Bertani). When the OD600 of LB medium reached 0.6, the temperature was changed to 16 °C, and isopropyl-β-D-thiogalactopyranoside (IPTG, Beyotime, Shanghai, China) was added at a final concentration of 0.4 mM to induce protein expression for 16 h. After 16 h, the pellet was collected after centrifugation at 4,000 rpm for 15 min at 4 °C. […]
The RORγt protein was immobilized on a CM5 chip (GE Health, Chicago, USA) using Biaocre 8 K. A sensogram was obtained using different serial concentrations of 8-074 (5000 nM, 2500 nM, 1250 nM, 625 nM, 312.5 nM, 156.25 nM, 78.125 nM, and 39.0625 nM). […] Data were analyzed using Biacore Evaluation Software.

Another series relates to LLC tumors. The experiment in a line: LLC syngeneic tumor model. It counts as in vivo, C57BL/6 mice. The protocol:
All experiments were approved by the IACUC and performed with strict adherence to a series of documents and standards of procedures (SOPs) relative to animal ethics and welfare. The mice were housed in cages with controlled temperature (25 ± 2 °C) and humidity (65 ± 5%) under a 12 h light/dark cycle. After a one-week adaptation period, six to eight-week-old female mice were injected s.c. with LLC (5 × 10^5), B16F10 (2 × 10^5), or MC38 (2 × 10^6) cells into the lower right flank. Approximately seven days after the subcutaneous injection of tumor cells, the mice were randomly divided into four groups. RORγt agonist 8-074, LYC-55716 (BioChemPartner, Shanghai, China) and anti-PD-1 (BioXCell, New Hampshire, USA) treatment commenced when the average tumor size reached 50 mm^3 for LLC and B16F10 and 150 mm^3 for MC38. The 5 × 10^5 LLC cells were transplanted subcutaneously into the right flank of the C57BL/6 mice seven days after being transplanted, and the mice were randomly divided into four groups. Anti-PD-1 was administrated one day after the RORγt agonist was treated (Clone: PMP1-14; 200 μg via intraperitoneal injection on day 1, 4, 7, 10, 13 after treatment with 8-074). For the CD8^+ T cell depletion, mice were injected intraperitoneally (i.p.) with 400 μg of anti-CD8α (YTS 169.4; BioXCell, New Hampshire, USA) one day before and dosed per week after the anti-PD-1 treatment. Mice with established tumors were treated using intraperitoneal injection of 8-074 (indicated dose), LYC-55716 (50 mg/kg) or DMSO (SIGMA, New Jersey, USA) every day. […] The tumor volume based on the caliper measurements was calculated using the modified ellipsoidal equation, where the tumor volume = 1/2 (length × width ^2) and the length was the longer dimension. […] TGI was calculated using the equation: [(Ct – C0) – (Tt – T0)] / (Ct – C0) × 100, where Ct = the mean tumor volume of the control group at the time (t); C0 = the mean tumor volume of the control group at t0; Tt = mean tumor volume of the treatment group at t; and T0 = mean tumor volume of the treatment group at t0.

A further series has as its system mouse Tc17 cells. The experiment in a line: Mouse Th17/Tc17 differentiation dose-response (flow cytometry). The series is classed as cell-based. As to conditions: for EC50: Mus musculus. For orientation: Flow cytometry measures light scatter and fluorescence of single cells or particles in a stream.
The mark [2] stands for this setting: fit of dose-response curve Fig. 1i.

Where two headings read alike, the source gives them in different places.

As to `CCS(=O)(=O)c1ccc(CC(=O)Nc2ccc(-c3ccc(CC(C)C)c(C#N)c3)c(C(F)(F)F)c2)cc1` [8-074], the EC50 at RORγt came out at 19.9 nM; in the series on mouse Tc17 cells (8-074 0.001 to 320 nM, Th17% by flow cytometry, read-out: EC50, stimulation of mouse Tc17 cells) it was 11.2 nM; in the series on mouse Tc17 cells (Fig. S2b summary, read-out: mTh17), 11.2 nM. At RORγt (maximal activation), the “RORγt dual FRET %max” value is recorded as 199%. Also, the “binding affinity with the mutated RORγt protein” value in series [1] is “no binding affinity”. Further, in the series on LLC tumors (LLC combination study Fig. 3e, anti-PD-1 10 mg/kg every three days i.p., 8-074 i.p. every day), the TGI is reported as 59.3%. In addition, the “body weight of mice” value in the series with LLC tumors (LLC model, dose escalation) is given as “slight body weight loss”. For the same compound, the “Tumor growth inhibition (TGI)” value in the series with LLC tumors (LLC, 50 mg/kg i.p. QD over two weeks, Fig. 3a) is reported as 55.6%. In the series with mouse Tc17 cells (setting [2]), this compound yielded a HillSlope of 1.006. The Span in the series on mouse Tc17 cells (setting [2]) is on record as 111.9.

What is called TGI is how far tumour growth fell short of that in controls.

Values taken from PMC9034499, “RORγt agonist enhances anti-PD-1 therapy by promoting monocyte-derived dendritic cells through CXCL10 in cancers” (Journal of Experimental & Clinical Cancer Research : CR, 2022).
